Experimental data from patent US9359405B2, “Antagonists of the interleukin-1 receptor” (Phlogo ApS, priority 2011, dated 2016).
Each block holds one molecule with its values, some of them ahead of it. No end group written: not given here.

Columns and labels:
[1] = Peptide solubility on reconstitution; type: physicochemical
From the text: Upon receiving the peptides from the synthesizing company (as powder), they were reconstituted in water, in PBS or in medium. Thus it is immediately apparent whether a peptide is soluble or not.

[2] = test system: NF-κB activated by IL1β (IL1RI signaling), HEK-Blue IL1β cells; experiment: IL1RI signaling assay, HEK-Blue IL1β reporter cells (NF-κB/SEAP); type: cell-based; details: IL1β 1.2 μM
From the text: (§1) IL1RI signaling assay: Commercially available Blue™ Cytokine Reporter Cell technology from InvivoGen (Denmark distributor: Sigma-Aldrich Denmark) was used. It is represented by an expanding family of engineered cell lines designed to provide a simple, rapid, and reliable method of monitoring the activation of signaling pathways induced by key cytokines. HEK-Blue™ IL1β cells are specifically engineered to selectively respond to IL1β, and they feature the secreted embryonic alkaline phosphatase (SEAP) reporter gene under the control of an NF-κB-inducible promoter. […] A target/receptor-specificity of the Ilantafin effect was verified employing HEK-Blue™ IL6 cells.

[3] = test system: IL1β-activated AMJ2-C8 macrophage cells; experiment: TNFα secretion by IL1β-activated macrophages (L929/MTS bioassay); type: cell-based; details: IL1β 1.2 μM
Experimental: The Ilantafin peptide or IL1Ra or IL1RI was added to cultures of macrophages (AMJ2-C8) seeded in 6-well multi-dishes (Nunc) (2.5×10^5 cells/well). After 24 h of incubation at 37° C., IL1β (1.2 μM) was added to the cultures to activate the macrophages. L929 cells were seeded in a 96-well plate at a density of 2×10^5 cells/mL. Both cell cultures were incubated for 24 h at 37° C. Conditioned medium from the macrophage cultures was collected and added to the fibroblast cultures together with 0.6 μg/well actinomycin. D (Sigma-Aldrich). Finally, after 24 h of incubation at 37° C., 20 μl of 3-(4,5-dimethylthiazol-2-yl)-5-(3-carboxymethoxyphenyl)-2-(4-sulfophenyl)-2H-tetrazolium (MTS) (Promega, Madison, Wis., USA) was added to each well and the plates were incubated protected from light, at 37° C., for ˜45 min and the optical density was measured at 490 nm in a Sunrise absorbance reader (Tecan, Männedorf, Switzerland). In order to calculate the amount of TNF-α in the conditioned medium, a standard curve was obtained by treating fibroblasts with different concentrations of TNF-α (R&D systems, Minneapolis, Minn., USA).

[4] = test system: cerebellar granule neurons; experiment: Neurite outgrowth in primary cerebellar granule neurons; type: cell-based, rat; details: for neurite outgrowth: 24 h, primary cerebellar neurons
Experimental: Cerebellar granular neurons (CGN) were prepared from 3 or 7 postnatal (P) day Wistar rats (Charles River, Sulzfeld, Germany or Taconic, Ejby, Denmark). Cerebella were cleared of meninges and blood vessels, roughly homogenized by chopping, and trypsinized with trypsin from Sigma-Aldrich (Brøndby, Denmark). The neurons were washed in the presence of DNAse 1 and soybean trypsin inhibitor (Sigma-Aldrich), and cellular debris was pelleted by centrifugation before plating. CGNs were plated at a density of 10,000 cells/well onto uncoated eight-well Lab-Tek chamber slides (NUNC, Slangerup, Denmark) in Neurobasal-A medium supplemented with 0.4% (w/v) BSA. Peptides or proteins at various concentrations were added to the medium immediately after plating, and cells were maintained at 37° C. and 5% CO2 for 24 h. Cultures then were fixed, blocked and incubated with polyclonal rabbit antibody against rat GAP-43 (Chemicon, Temecula, Calif., USA) followed by incubation with secondary Alexa Fluor488 goat anti-rabbit antibody (Molecular Probes, Eugene, Oreg., USA) as previously described (Neiiendam et al., 2004). The immunostained cultures were all recorded by computer-assisted fluorescence microscopy using a Nikon Diaphot inverted microscope (Nikon, Japan) equipped with a Nikon Plane 20× objective. Images were captured with a charge-coupled device video camera (Grundig Electronics, Nurnberg, Germany) using the software package Prima developed at the Protein Laboratory (University of Copenhagen, Copenhagen, Denmark). The length of neuronal processes per cell was estimated using the software package Process Length developed at the Protein Laboratory (Ronn et al. 2000). For estimation of neurite outgrowth, at least 200±20 cells were processed for each group in each individual experiment.

[5] = biological target: T1, IL1RI (Homo sapiens, UniProt P14778); experiment: Kb (s^-1)
T1 construct: The recombinant protein comprising the whole extracellular part of IIL1RI was immobilised on the surface of a CM5 sensor chip
From the text: (§2) Table printed on a drawing sheet, Figure 3
Head of the field: Kb (s^-1)
(§3) First copying reader's note: Rate and affinity constants for binding to IL1RI; each cell holds the value with its ± error, and Ilantafin is a peptide while ILRa and IL1β are proteins.

[6] = biological target: T1, IL1RI; experiment: ka (M^-1s^-1)
From the text: as §2
Head of the field: ka (M^-1s^-1)
as §3

[7] = test system: cerebellar granule neurons; experiment: Survival assay, cerebellar granule neurons, low-potassium apoptosis; type: cell-based, rat; details: 5 mM KCl, 2 days
Experimental: Survival assay: Primary cultures of CGN were plated at a density of 100,000 cells/cm2 on poly-L-lysine coated 8-well permanox slides in Neurobasal-A medium (Gibco BRL) supplemented with 2% (v/v) B27, 0.5% (v/v) glutamax, 100 units/mL penicillin, 100 µg/mL streptomycin and KCl, making the final concentration of KCl in the medium 40 mM. 24 hours after plating, cytosine-b-D-arabinofuranoside (Ara-C; Sigma-Aldrich) was added to a final concentration of 10 μM to avoid proliferation of glial cells, after which the neurons were allowed to differentiate for a further 6 days at 37° C. Apoptotic cell death was induced by washing twice and changing the medium to Basal Medium Eagle (BME; Gibco BRL) supplemented with 1% (v/v) glutamine, 100 U/mL penicillin and 100 µg/mL streptomycin, 3.5 g D-glucose/L and 1% (v/v) sodium pyruvate (Gibco BRL) together with various concentrations of peptide. Thereby the concentration of potassium in the cultures was reduced to 5 mM KCl (Ditlevsen et al., 2003). Two days after induction of apoptosis, the cells were fixed with 4% (v/v) formaldehyde and stained with Hoechst 33258 as described for the survival assay employing hippocampal neurons.

[8] = test system: STAT signalling induced by IL6, HEK-Blue IL6 cells; experiment: Target specificity, HEK-Blue IL6 cells; type: cell-based
From the text: as §1

[9] = test system: collagen-induced arthritis (CIA); experiment: Collagen-induced arthritis in rats, treatment from day 15 (Example 7); type: in vivo, rat; details: 3.3 and 10 mg/kg s.c. daily from day 15
From the text: Rheumatoid arthritis is a chronic, inflammatory, systemic autoimmune disease that affects about 1% of the general population in Western countries. Collagen-induced arthritis (CIA) in rats is a widely employed animal model for the screening of anti-inflammatory compounds. Collagen bovine, type II (CII, Cat.no.20021, Lot 090209, Chondrex, USA), Complete Freund's Adjuvant, containing 0.1% of Mycobacterium tuberculosis (CFA, Cat.no. F5581, Lot 049K8700, Sigma-Aldrich), Incomplete Freund's Adjuvant (IFA, Cat.no. F5506, Lot 058K8702, Sigma). PBS (Panum Institute, Copenhagen University). Isofluran (Baxter). Animals were immunized twice: on day 0 (CII+CFA) and on day 10 (CII+IFA, booster). On day 15 the mean clinical score reached a value of 5.0 and all animals were divided into 3 groups so that the severity of disease (mean clinical score) in all groups was almost equal. The peptide (two doses, 3.3 and 10 mg/kg) was administered subcutaneously daily starting at day 15. The clinical evaluation of the arthritis severity was assessed using the following grading system: O— no redness or swelling in foot and palm; 1—slight swelling or redness in metatarsophalangeal joint and ankle joint foot or palm; 2—progressed swelling/inflammation and redness from ankle to mid foot or in entire palm; 3—swelling/inflammation of entire foot except toes; 4—swelling and inflammation of entire foot including toes.

solubility in PBS or medium [1]: not soluble in PBS or medium
solubility in water [1]: soluble in water
Molecule: AGYLQGPNVN-OH [Ilantafin-2]

Molecule: AQMKSSKRGS (listed as Homo sapiens) [Ilantafin rev-d, reference compound]
inhibition of NF-κB activation induced by IL1β [2]: neither two peptides with scrambled sequences, Ilantafin scr-d1 (KQSAGKRSMS) (SEQ ID NO:39), Ilantafin scr-d2 (KASQKGMSRS) (SEQ ID NO:40), nor a peptide with the reverseequence, Ilantafin rev-d (AQMKSSKRGS) (SEQ ID NO:41) inhibit the activation of NF-KB induced by IL1β

solubility [1]: completely insoluble when produced
Molecule: EGVMVTKFYFQED-OH [Ilantafin-5, EGVMVTKFYFQED]

Molecule: IL1Ra: IL-1 receptor antagonist protein; commercial IL1Ra used as positive control
inhibition of NF-κB activation induced by IL1β [2]: inhibitory effect
inhibition of TNFα secretion by IL1β-activated macrophages [3]: also inhibit macrophage activation
neurite outgrowth [4]: induce neurite outgrowth in primary cerebellar neurons in a dose-dependent manner

Kb (s^-1) [5]: 2.69 ± 0.58 x 10^-3 s^-1
ka (M^-1s^-1) [6]: 1.84 ± 0.20 x 10^5 M^-1s^-1
Molecule: IL1β: Interleukin-1 beta, pro-inflammatory cytokine, agonist of the IL1 receptor [listing 1 of 2 here]

Molecule: IL1β: Interleukin-1 beta, pro-inflammatory cytokine, agonist of the IL1 receptor [listing 2 of 2 here]
neurite outgrowth [4]: does not affect neuritogenesis
effect on Ilantafin- and IL1Ra-induced neurite outgrowth ([4]; co-treatment): inhibits Ilantafin- and IL1Ra induced neurite outgrowth

Molecule: KASQKGMSRS (listed as Homo sapiens) [Ilantafin scr-d2, reference compound]
inhibition of NF-κB activation induced by IL1β [2]: neither two peptides with scrambled sequences, Ilantafin scr-d1 (KQSAGKRSMS) (SEQ ID NO:39), Ilantafin scr-d2 (KASQKGMSRS) (SEQ ID NO:40), nor a peptide with the reverseequence, Ilantafin rev-d (AQMKSSKRGS) (SEQ ID NO:41) inhibit the activation of NF-KB induced by IL1β

Molecule: KQSAGKRSMS (listed as Homo sapiens) [Ilantafin scr-d1, reference compound]
inhibition of NF-κB activation induced by IL1β [2]: neither two peptides with scrambled sequences, Ilantafin scr-d1 (KQSAGKRSMS) (SEQ ID NO:39), Ilantafin scr-d2 (KASQKGMSRS) (SEQ ID NO:40), nor a peptide with the reverseequence, Ilantafin rev-d (AQMKSSKRGS) (SEQ ID NO:41) inhibit the activation of NF-KB induced by IL1β

solubility in PBS or medium [1]: not soluble in PBS or medium
solubility in water [1]: soluble in water
Molecule: NQKTFYLRNNQL-OH [Ilantafin-6]

solubility in water [1]: not soluble in water
Molecule: NQLVAGYLQGPNVN-OH [Ilantafin-3]

Molecule: SGRKSSKMQA (also: tetrameric dendrimer; listed as Homo sapiens) [Ilantafin-d]
inhibition of NF-κB activation induced by IL1β [2]: inhibitory effect
inhibition of TNFα secretion by IL1β-activated macrophages [3]: inhibitory effect
neuronal survival / cell death (apoptosis) induced by lowering potassium [7]: promotes survival of cerebellar granule neurons
effect on STAT signalling induced by IL6 [8]: does not affect the activation of STAT signalling induced by IL6
clinical manifestations (clinical score) of CIA [9]: abrogated an increase in clinical manifestations of the disease

Molecule: SGRKSSKMQA-OH [Ilantafin-m]
inhibition of NF-κB activation induced by IL1β [2]: inhibitory effect
inhibition of TNFα secretion by IL1β-activated macrophages [3]: inhibitory effect
neuronal survival / cell death (apoptosis) induced by lowering potassium [7]: promotes survival of cerebellar granule neurons

solubility in water [1]: not soluble in water
Molecule: VTKFYFQED-OH [Ilantafin-4, VTKFYFQED]

B1: SIL1RI: soluble IL1 receptor type 1 protein, positive control (protein)
chain: LEADKCKEREEKIILVSSANEIDVRPCPLNPNEHKGTITWYKDDSKTPVSTEQASRIHQHKEKLWFVPAKVEDSGHYYCVVRNSSYCLRIKISAKFVENEPNLCYNAQAIFKQKLPVAGDGGLVCPYMEFFKNENNELPKLQWYKDCKPLLLDNIHFSGVKDRLIVMNVAEKHRGNYTCHASYTYLGKQYPITRVIEFITLEENKPTRPVIVSPANETMEVDLGSQIQLICNVTGQLSDIAYWKWNGSVIDEDDPVLGEDYYSVENPANKRRSTLITVLNISEIESRFYKHPFTCFAKNTHGIDAAYIQLIYPVTNFQK
inhibition of NF-κB activation induced by IL1β [2]: inhibitory effect
inhibition of TNFα secretion by IL1β-activated macrophages [3]: also inhibit macrophage activation
neurite outgrowth [4]: induce neurite outgrowth in primary cerebellar neurons in a dose-dependent manner
